Legend:
L-type Ca^2+ channel = assay type: cell-based, rat (Sprague-Dawley); conditions: 10 μM
T-type Ca^2+ channel = assay type: cell-based, rat (Sprague-Dawley); conditions: 10 μM
[1] = tested on: tetrodotoxin-sensitive (TTX-S) sodium channels; conditions: read-out: IC50 value, TTX-S voltage-gated sodium channels; cited from earlier work

## Hainantoxin-IV [HNTX-IV]
L-type Ca^2+ channel
  effect on Ca^2+ currents (L-type): neither native HNTX-IV (Fig. 8A, 8B) nor rHNTX-IV (Fig. 8C, 8D) could cause obvious changes
T-type Ca^2+ channel
  effect on Ca^2+ currents (T-type): neither native HNTX-IV (Fig. 8A, 8B) nor rHNTX-IV (Fig. 8C, 8D) could cause obvious changes
[1]
  IC50: 34 nM

Source: paper PMC4315428 (PLoS ONE, 2015)
